# Test results published in PubChem BioAssay (NCI).
#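 How tested: cells in 96-well plates exposed to compound for 48 hours at five concentrations. The concentration for 50% growth inhibition is given as GI50. TGI denotes the concentration required for complete inhibition of growth.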
# Key:
# Assay in all cases: NCI tumour cell line growth inhibition, 48 h
# [1] = test system: SK-MEL-28 melanoma
# [2] = test system: UACC-62 melanoma
# [3] = test system: PC-3 prostate
# [4] = test system: SF-539 CNS
# [5] = test system: SN12C renal
# [6] = test system: CAKI-1 renal
# [7] = test system: CCRF-CEM leukemia
# [8] = test system: MDA-MB-435
# [9] = test system: SF-295 CNS
# [10] = test system: K-562 leukemia
# [11] = test system: SF-268 CNS
# [12] = test system: COLO 205 colon
# [13] = test system: MCF7 breast
# [14] = test system: HT29 colon
# [15] = test system: NCI-H460 lung
# [16] = test system: TK-10 renal
# [17] = test system: UO-31 renal
# [18] = test system: A549 NSCLC
# [19] = test system: SR leukemia
# [20] = test system: EKVX NSCLC
# [21] = test system: HL-60(TB) leukemia
# [22] = test system: MDA-MB-231 breast
# [23] = test system: RXF 393 renal
# [24] = test system: IGROV1 ovarian
# [25] = test system: MALME-3M melanoma
# [26] = test system: UACC-257 melanoma
# [27] = test system: HOP-62 NSCLC
# [28] = test system: SNB-75 CNS
# [29] = test system: M14 melanoma
# [30] = test system: HS 578T breast
# [31] = test system: ACHN renal
# [32] = test system: OVCAR-8 ovarian
# [33] = test system: NCI-H226 lung
# [34] = test system: OVCAR-4 ovarian
# [35] = test system: OVCAR-5 ovarian
# [36] = test system: NCI-H23 lung
# [37] = test system: MOLT-4 leukemia
# [38] = test system: 786-0 renal
# [39] = test system: SNB-19 CNS
# [40] = test system: SK-OV-3 ovarian
# [41] = test system: RPMI-8226 leukemia
# [42] = test system: SK-MEL-5 melanoma
# [43] = test system: KM12 colon
# [44] = test system: LOX IMVI melanoma
# [45] = test system: DU-145 prostate
# [46] = test system: NCI/ADR-RES ovarian
# [47] = test system: T-47D breast
# [48] = test system: HOP-92 NSCLC
# [49] = test system: HCT-116 colon
# [50] = test system: SW-620 colon
# [51] = test system: OVCAR-3 ovarian
# [52] = test system: MDA-N
# [53] = test system: BT-549 breast
# [54] = test system: U251 CNS
# [55] = test system: NCI-H522 lung
# [56] = test system: HCT-15 colon
# [57] = test system: A498 renal
# [58] = test system: SK-MEL-2 melanoma
# [59] = test system: HCC-2998 colon
structure (smiles),measurement,setting,value
S=C1Cc2c([nH]c3ccccc23)-c2ccccc2N1,TGI,[1],> 100 µM
same,TGI,[2],> 100 µM
same,TGI,[3],> 100 µM
same,TGI,[4],> 100 µM
same,TGI,[5],> 100 µM
same,TGI,[6],79 µM
same,TGI,[7],> 100 µM
same,TGI,[8],> 100 µM
same,TGI,[9],> 100 µM
same,TGI,[10],> 100 µM
same,TGI,[11],> 100 µM
same,TGI,[12],> 100 µM
same,TGI,[13],> 100 µM
same,TGI,[14],> 100 µM
same,TGI,[15],> 100 µM
same,TGI,[16],52.9 µM
same,TGI,[17],58.9 µM
same,TGI,[18],> 100 µM
same,TGI,[19],> 100 µM
same,TGI,[20],> 100 µM
same,TGI,[21],> 100 µM
same,TGI,[22],> 100 µM
same,TGI,[23],46 µM
same,TGI,[24],> 100 µM
same,TGI,[25],> 100 µM
same,TGI,[26],> 100 µM
same,TGI,[27],62.3 µM
same,TGI,[28],66.7 µM
same,TGI,[29],> 100 µM
same,TGI,[30],> 100 µM
same,TGI,[31],80.6 µM
same,TGI,[32],> 100 µM
same,TGI,[33],89.5 µM
same,TGI,[34],> 100 µM
same,TGI,[35],> 100 µM
same,TGI,[36],> 100 µM
same,TGI,[37],> 100 µM
same,TGI,[38],> 100 µM
same,TGI,[39],> 100 µM
same,TGI,[40],64.4 µM
same,TGI,[41],> 100 µM
same,TGI,[42],> 100 µM
same,TGI,[43],> 100 µM
same,TGI,[44],> 100 µM
same,TGI,[45],> 100 µM
same,TGI,[46],> 100 µM
same,TGI,[47],> 100 µM
same,TGI,[48],> 100 µM
same,TGI,[49],> 100 µM
same,TGI,[50],> 100 µM
same,TGI,[51],> 100 µM
same,TGI,[52],> 100 µM
Cc1[nH]c(N=Nc2ccccc2)nc1N=Nc1ccccc1,GI50,[1],4.5 µM
same,TGI,[1],> 41 µM
same,GI50,[2],1.83 µM
same,TGI,[2],4.34 µM
same,GI50,[3],4.99 µM
same,TGI,[3],> 51.6 µM
same,GI50,[4],2.6 µM
same,TGI,[4],6.93 µM
same,GI50,[5],3.51 µM
same,TGI,[5],22.4 µM
same,GI50,[6],1.04 µM
same,TGI,[6],3.48 µM
same,GI50,[7],2.19 µM
same,TGI,[7],> 25.3 µM
same,GI50,[8],3.35 µM
same,TGI,[8],17.9 µM
same,GI50,[9],1.93 µM
same,TGI,[9],11.6 µM
same,GI50,[53],2.08 µM
same,TGI,[53],8.11 µM
same,GI50,[10],3.55 µM
same,TGI,[10],> 100 µM
same,GI50,[11],2.45 µM
same,TGI,[11],11.5 µM
same,GI50,[12],2.96 µM
same,TGI,[12],13.1 µM
same,GI50,[13],2.73 µM
same,TGI,[13],15.3 µM
same,GI50,[14],4.57 µM
same,TGI,[14],20.8 µM
same,GI50,[15],2.37 µM
same,TGI,[15],8.09 µM
same,GI50,[16],1.85 µM
same,TGI,[16],> 32.9 µM
same,GI50,[17],1.34 µM
same,TGI,[17],13 µM
same,GI50,[18],2.86 µM
same,TGI,[18],12 µM
same,GI50,[19],0.418 µM
same,GI50,[54],2.83 µM
same,TGI,[54],> 37.5 µM
same,GI50,[20],3.05 µM
same,TGI,[20],29.9 µM
same,GI50,[55],2.69 µM
same,TGI,[55],> 34.5 µM
same,GI50,[21],2.56 µM
same,TGI,[21],> 23.6 µM
same,GI50,[22],5.25 µM
same,TGI,[22],> 45.4 µM
same,GI50,[23],0.552 µM
same,TGI,[23],3.43 µM
same,GI50,[24],1.6 µM
same,TGI,[24],5.15 µM
same,GI50,[25],2.27 µM
same,TGI,[25],8.06 µM
same,GI50,[26],2.26 µM
same,TGI,[26],5.89 µM
same,GI50,[27],4.09 µM
same,TGI,[27],17.1 µM
same,GI50,[28],1.66 µM
same,TGI,[28],12.5 µM
same,GI50,[29],2 µM
same,TGI,[29],4.49 µM
same,GI50,[30],12.8 µM
same,TGI,[30],> 34.8 µM
same,GI50,[31],2.15 µM
same,TGI,[31],7.89 µM
same,GI50,[32],3.2 µM
same,TGI,[32],53.1 µM
same,GI50,[33],2.7 µM
same,TGI,[33],12.4 µM
same,GI50,[34],3.06 µM
same,TGI,[34],55.4 µM
same,GI50,[35],6.62 µM
same,TGI,[35],> 82.2 µM
same,GI50,[36],3.28 µM
same,TGI,[36],> 36.3 µM
same,GI50,[37],2.32 µM
same,TGI,[37],> 41.7 µM
same,GI50,[38],2.75 µM
same,TGI,[38],10.2 µM
same,GI50,[39],3.63 µM
same,TGI,[39],> 87.7 µM
same,GI50,[40],3.14 µM
same,TGI,[40],> 32.4 µM
same,GI50,[41],1.17 µM
same,TGI,[41],8.38 µM
same,GI50,[42],2.41 µM
same,TGI,[42],7.83 µM
same,GI50,[43],3.98 µM
same,TGI,[43],> 93.2 µM
same,GI50,[44],2.72 µM
same,TGI,[44],20.9 µM
same,GI50,[45],3.17 µM
same,TGI,[45],> 34.9 µM
same,GI50,[46],2.78 µM
same,TGI,[46],27.3 µM
same,GI50,[47],2.77 µM
same,TGI,[47],> 46.8 µM
same,GI50,[56],1.4 µM
same,TGI,[56],22.1 µM
same,GI50,[57],5.1 µM
same,TGI,[57],25.6 µM
same,GI50,[48],2.34 µM
same,TGI,[48],20.3 µM
same,GI50,[58],3.59 µM
same,TGI,[58],19.1 µM
same,GI50,[49],3.12 µM
same,TGI,[49],27.6 µM
same,GI50,[50],4.7 µM
same,TGI,[50],> 56.7 µM
same,GI50,[51],2.6 µM
same,TGI,[51],16.1 µM
same,GI50,[59],4.2 µM
same,TGI,[59],29.6 µM
